The subject of data set [1] is HCT-116. Description: Cytotoxicity against human HCT116 cells at 10 uM after 72 hrs by [3H]thymidine incorporation assay. Particulars: read-out: GI. In general terms: Uptake of a labelled nucleoside into DNA is a usual measure of proliferation.
In data set [2] the test system is HCT-116. Description: Cytotoxicity against human HCT116 cells after 72 hrs by [3H]thymidine incorporation assay.
Data set [3] is described as follows: Chemical stability of the compound assessed as half life. Type of data set: physicochemical.
Data set [4] can be described thus: Efflux ratio of permeability in human Caco-2 cells. Type of data set: ADME, cell-based. On the technique in general: Caco-2 monolayers are a common model of the intestinal barrier.
Data set [5] can be described thus: Solubility of the compound. Type of data set: physicochemical.
The nature of data set [6]: Inhibition of Hsp90 assessed as IP6K2 interaction at up to 11 uM by Western blotting.
Data set [7] is described as follows: Inhibition of Hsp90 assessed as Her2 interaction at up to 11 uM by Western blotting. A general note: In western blotting, separated proteins are transferred to a membrane and probed.

Converted amounts (≈) assume the structure as drawn. The source made the active and inactive calls. The rule behind the calls is not given here. Non-standard residues stand in square brackets, D forms with d. Residues, ends and D or L forms follow the SMILES beside them. *: point of attachment. dNMeF = CN[C@H](Cc1ccccc1)C(=O)O; Cha = N[C@@H](CC1CCCCC1)C(=O)O; NMeK = CN[C@@H](CCCCN)C(=O)O; Boc = CC(C)(C)OC(=O)*; Bn = c1ccc(C*)cc1 Bounds are passed on as bounds.

With `CC(C)C[C@@H]1NC(=O)[C@H](CC(C)C)NC(=O)[C@H](C(C)C)NC(=O)[C@@H](Cc2ccccc2)N(C)C(=O)[C@H](Cc2ccccc2)NC1=O`, the inhibition of growth at 10 µM in the data set with HCT-116 [1] is 99%.
On the same count and under the same terms, then `CC(C)C[C@@H]1NC(=O)[C@H](Cc2ccccc2)NC(=O)[C@H](CC(C)C)N(C)C(=O)[C@H](CC(C)C)NC(=O)[C@H](C(C)C)NC1=O`, with 35%; and `CC(C)C[C@@H]1NC(=O)[C@H](CC(C)C)NC(=O)[C@H](C(C)C)NC(=O)[C@@H](Cc2ccccc2)NC(=O)[C@H](Cc2ccccc2)NC1=O`, with 21%.
On the same count and under the same terms, the same measure for `CC(C)C[C@@H]1NC(=O)[C@@H](CC(C)C)NC(=O)[C@@H](C(C)C)NC(=O)[C@H](CC(C)C)N(C)C(=O)[C@H](Cc2ccccc2)NC1=O`: 30%.
Still for that read-out and setting: then `CC(C)C[C@@H]1NC(=O)[C@H](Cc2ccccc2)NC(=O)[C@H](CCCCN)N(C)C(=O)[C@H](CC(C)C)NC(=O)[C@H](C(C)C)NC1=O` (cyclo(FLVL[NMeK])), with 0%; and `CC(C)C[C@@H]1NC(=O)[C@H](Cc2ccccc2)NC(=O)[C@@H](Cc2ccccc2)NC(=O)[C@@H](CC(C)C)NC(=O)[C@H](C(C)C)NC1=O`, with 28%.
On to `CC(C)C[C@@H]1NC(=O)[C@H](Cc2ccccc2)NC(=O)[C@@H](CC(C)C)NC(=O)[C@@H](CC(C)C)NC(=O)[C@H](C(C)C)NC1=O`, for which the inhibition of growth at 10 µM in the data set with HCT-116 [1] amounted to 20%.
Same read-out and setting: then `CC(C)C[C@@H]1NC(=O)[C@H](CC(C)C)NC(=O)[C@H](C(C)C)NC(=O)[C@H](CC(C)C)NC(=O)[C@@H](Cc2c[nH]c3ccccc23)NC1=O`, with 30%; and `CC(C)[C@H]1NC(=O)[C@@H](Cc2ccccc2)N(C)C(=O)[C@H](Cc2ccccc2)NC(=O)[C@H](CO)NC(=O)[C@H](CC2CCCCC2)NC1=O`, with 18%.
On the same count and under the same terms, the same measure for `CC(C)C[C@@H]1NC(=O)[C@@H](Cc2ccccc2)NC(=O)[C@@H](Cc2ccccc2)NC(=O)[C@@H](CC(C)C)N(C)C(=O)[C@H](C(C)C)N(C)C1=O`: 15%; for `CC(C)C[C@@H]1NC(=O)[C@H](Cc2ccccc2)NC(=O)[C@H](CCCCN)NC(=O)[C@H](CC(C)C)NC(=O)[C@@H](C(C)C)NC1=O` (cyclo(FL[dV]LK)): 0%; for `CC(C)C[C@@H]1NC(=O)[C@@H](C(C)C)NC(=O)[C@@H](CC(C)C)NC(=O)[C@H](Cc2ccccc2)N(C)C(=O)[C@H](CC(C)C)NC1=O`: 30%.
Take `CC(C)C[C@@H]1NC(=O)[C@@H]([C@@H](OCc2ccccc2)c2ccccc2)NC(=O)[C@@H](Cc2ccccc2)NC(=O)[C@@H](CC(C)C)NC(=O)[C@H](C(C)C)N(C)C1=O` (mixture of isomers): the inhibition of growth at 10 µM in the data set with HCT-116 [1] worked out at 63%. The same compound showed a 50% inhibitory concentration (IC50) with HCT-116 [2] of 8.9 µM.
Take `CC(C)C[C@@H]1NC(=O)[C@H](Cc2ccccc2)NC(=O)[C@@H](CC(C)C)N(C)C(=O)[C@H](CC(C)C)NC(=O)[C@H](C(C)C)NC1=O`: the inhibition of growth at 10 µM with HCT-116 [1] worked out at 32%.
On the same count and under the same terms, the same measure for `CC(C)C[C@@H]1NC(=O)[C@H](CC(C)C)NC(=O)[C@@H](C(C)C)NC(=O)[C@@H](Cc2ccccc2)NC(=O)[C@H](Cc2ccccc2)NC1=O`: 4%.
Consider `CC(C)C[C@@H]1NC(=O)[C@@H]([C@H](OCc2ccccc2)c2ccccc2)NC(=O)[C@@H](Cc2ccccc2)NC(=O)[C@@H](CC(C)C)NC(=O)[C@H](C(C)C)N(C)C1=O`, for which the inhibition of growth at 10 µM with HCT-116 [1] worked out at 94%. Also, the half-life in data set [3] was greater than 2.87 h. In addition, the efflux ratio in data set [4] came to 3. In data set [5], the solubility is 7 µM (≈ 5.18 µg/mL). The compound also showed an IC50 in the data set with HCT-116 [2] of 3.2 µM.
In the case of `CC(C)C[C@@H]1NC(=O)[C@H](Cc2ccccc2)NC(=O)[C@H](CCCCNC(=O)OC(C)(C)C)N(C)C(=O)[C@H](CC(C)C)NC(=O)[C@H](C(C)C)NC1=O` (cyclo(FLVL[NMeK](Boc))), the inhibition of growth at 10 µM in the data set with HCT-116 [1] was 58%.
With `CC(C)C[C@@H]1NC(=O)[C@H](CC(C)C)NC(=O)[C@H](C(C)C)NC(=O)[C@H](CC(C)C)NC(=O)[C@H](Cc2ccccc2)NC1=O`, the IC50 in the data set on HCT-116 [2] stood at 19.7 µM.
As to `CC(C)C[C@@H]1NC(=O)[C@H](CC(C)C)NC(=O)[C@H](C(C)C)NC(=O)[C@@H](CC(C)C)NC(=O)[C@@H](Cc2ccccc2)NC1=O`, the inhibition of growth at 10 µM in the data set with HCT-116 [1] amounted to 14%.
The same measure, in the same setting: the same measure for `CC(C)C[C@@H]1NC(=O)[C@H](CC(C)C)NC(=O)[C@H](C(C)C)NC(=O)[C@H](CC(C)C)NC(=O)[C@@H](Cc2ccc(O)cc2)NC1=O`: 50%.
Turning to `CC(C)C[C@@H]1NC(=O)[C@H]([C@@H](OCc2ccccc2)c2ccccc2)NC(=O)[C@@H](Cc2ccccc2)NC(=O)[C@@H](CC(C)C)NC(=O)[C@H](C(C)C)N(C)C1=O`, in the data set with HCT-116 [1], the inhibition of growth at 10 µM is 64%. Moreover, the concentration for half-maximal inhibition (IC50) in the data set on HCT-116 [2] was determined as 5.8 µM.
For `CC(C)C[C@@H]1NC(=O)[C@H](C(C)C)NC(=O)[C@@H](Cc2ccccc2)N(C)C(=O)[C@H](Cc2ccccc2)NC(=O)[C@@H](CC(C)C)N(C)C1=O`, the inhibition of growth at 10 µM in the data set on HCT-116 [1] was determined as 47%.
`CC(C)[C@H]1NC(=O)[C@@H](Cc2ccccc2)NC(=O)[C@H](Cc2ccccc2)NC(=O)[C@H](COCc2ccccc2)NC(=O)[C@H](CC2CCCCC2)NC1=O` (cyclo([Cha]S(Bn)F[dF][dV])): in the data set on HCT-116 [1], the inhibition of growth at 10 µM turned out to be 10%. For the same compound, the inhibition result in data set [6] and in data set [7] was “inactive” in each case.
For `CC(C)C[C@@H]1NC(=O)[C@H](C(C)C)NC(=O)[C@@H](Cc2ccccc2)N(C)C(=O)[C@H](Cc2ccccc2)NC(=O)[C@H](CCCCN)NC1=O` (cyclo(F[dNMeF]VLK)), the inhibition of growth at 10 µM in the data set with HCT-116 [1] stood at 0%.
Turning to `CC(C)[C@H]1NC(=O)[C@@H](Cc2ccccc2)N(C)C(=O)[C@H](Cc2ccccc2)NC(=O)[C@H](COCc2ccccc2)NC(=O)[C@H](CC2CCCCC2)NC1=O` (cyclo([Cha]S(Bn)F[dNMeF][dV])), the inhibition of growth at 10 µM with HCT-116 [1] is 93%. Further, the solubility in data set [5] was less than 5 µM. Also, the inhibition entry in data set [6] and in data set [7] was “Active” throughout. Moreover, the IC50 in the data set with HCT-116 [2] was no more than 1.9 µM.
On to `CC(C)C[C@@H]1NC(=O)[C@H](Cc2ccccc2)NC(=O)[C@H](CCCCNC(=O)OC(C)(C)C)NC(=O)[C@H](CC(C)C)NC(=O)[C@@H](C(C)C)NC1=O`, for which, in the data set with HCT-116 [1], the inhibition of growth at 10 µM worked out at 9%.
Still for that read-out and setting: the same measure for `CC(C)C[C@@H]1NC(=O)[C@H](Cc2ccccc2)NC(=O)[C@H](CCCCNC(=O)OC(C)(C)C)NC(=O)[C@H](CC(C)C)NC(=O)[C@H](C(C)C)NC1=O`: 0%; for `CC(C)C[C@@H]1NC(=O)[C@H](CC(C)C)NC(=O)[C@@H](C(C)C)NC(=O)[C@H](CC(C)C)NC(=O)[C@H](Cc2ccccc2)NC1=O`: 8%.
With `CC(C)C[C@@H]1NC(=O)[C@H](CC(C)C)NC(=O)[C@H](C(C)C)NC(=O)[C@H](CC(C)C)NC(=O)[C@@H](Cc2ccccc2)NC1=O`, in the data set with HCT-116 [1], the inhibition of growth at 10 µM amounted to 26%.
On the same count and under the same terms, then `CC(C)C[C@@H]1NC(=O)[C@H](Cc2ccccc2)NC(=O)[C@H](CCCCN)NC(=O)[C@H](CC(C)C)NC(=O)[C@H](C(C)C)NC1=O` (cyclo(FLVLK)), with 0%.
The same measure, in the same setting: the same measure for `CC(C)C[C@@H]1NC(=O)[C@H](CC(C)C)N(C)C(=O)[C@H](C(C)C)NC(=O)[C@@H](CC(C)C)NC(=O)[C@H](Cc2ccccc2)NC1=O`: 3%; for `CC(C)C[C@@H]1NC(=O)[C@@H](Cc2ccccc2)NC(=O)[C@@H](CC(C)C)NC(=O)[C@H](CC(C)C)N(C)C(=O)[C@H](C(C)C)NC1=O`: 18%.
As to `CC(C)C[C@@H]1NC(=O)[C@H](Cc2ccccc2)NC(=O)[C@@H](Cc2ccccc2)NC(=O)[C@@H](CCCCNC(=O)OCc2ccccc2)NC(=O)[C@H](C(C)C)N(C)C1=O`, in the data set with HCT-116 [1], the inhibition of growth at 10 µM came to 36%.
Same read-out and setting: then `CC(C)C[C@@H]1NC(=O)[C@H](C(C)C)NC(=O)[C@@H](CC(C)C)NC(=O)[C@@H](Cc2ccccc2)NC(=O)[C@H](CC(C)C)N(C)C1=O`, with 15%.

For orientation: IC50 means the concentration that gives 50% inhibition. Read a high IC50 as weaker potency. One may read the half-life as the time in which the quantity being followed falls by half. A word on the efflux ratio: it is the permeability from basolateral to apical divided by that in the opposite direction, in the common usage. As usually defined, the solubility is the concentration that dissolves in the medium under given conditions. Read a low solubility as little dissolved substance.

These data come from ChEMBL document CHEMBL1240508, “Design and synthesis of Hsp90 inhibitors: exploring the SAR of Sansalvamide A derivatives” (Bioorg Med Chem, 2010).
